Blank lines part the entries; values can stand above or below the molecule they belong to.
Key:
FVIII deficient plasma = experiment: aPTT based one stage clotting assay in FVIII deficient plasma; assay type: biochemical, human; settings: for average clotting time / clotting time: Table 3A Exp. 1, DAPTTIN
Experimental: During normal hemostasis, FIX becomes initially activated either by the tissue factor (TF)/factor VIIa pathway or later on by activated factor XI (FXIa). Subsequent to its activation, FIXa associates on the platelet surface in a membrane bound complex with activated FVIII. […] Different amounts of antibody 193/AD3 or mouse IgG (as a control) were used in a standard aPTT based one stage clotting assay. Briefly, 100 μl of antibody-containing samples were incubated with 100 μl of FVIII deficient plasma (DP) and with 100 μl of DAPTTIN (PTT Reagent for determining activated Thromboplastin Time; IMMUNO AG) reagent, in a KC10A clotting analyzer. Where indicated, a total amount of 50 ng activated FIX was included in the reaction mixture. After a 4 minute incubation, the reaction was started by the addition of 100 μl CaCl2 (25 mM).
The peptides were also analyzed for their potential to reduce the clotting time in a FVIII deficient plasma. The aPTT based one stage clotting assay was essentially done as described (see example 6). Clotting times (time from starting the reaction to the “clot”-formation were compared either against FVIII, a buffer control (IZ) or a control peptide (scrambled version). The results of two typical clotting experiments done with two different aPTT reagents (DAPTTIN and Pathromtin SL) are shown in table 3A and table 3B.

human FIXa = target: T1, human FIXa (Homo sapiens, UniProt P00740); experiment: Chromogenic FVIII-like (FXa generation) assay with human FIXa added; assay type: biochemical; settings: 2.9 nM human FIXa
T1 construct: with (+) and without (−) addition of 50 ng human FIXaβ; purchased ERL (Enzyme Research Laboratories)
Experimental: The chromogenic activity of these antibody preparations was measured in the following FXa generation kinetic assay: 10 μg of monoclonal antibody (in 25 μl) were transferred to microtiter plate wells and warmed to 37° C. Chromogenic substrate (S-2222), synthetic thrombin inhibitor (I-2581), factor IXa and FX were reconstituted in sterile water and FIXa/FX (both bovine) were mixed with phospholipids according to the supplier's protocol. Per reaction, 50 μl of the phospholipid/FIXa/FX solution were combined with 25 μl CaCl2 (25 mM) and 50 μl of the substrate/inhibitor cocktail. To start the reaction, 125 μl of the premix were added to the monoclonal antibody solution in the microtiter plates and incubated at 37° C. Absorbance at 405 nm and 490 nm of the samples was read at various times (5 min to 2 h) against a reagent blank ([…] TBS instead of monoclonal antibodies) in a Labsystems iEMS Reader MF™ microtiter plate reader using GENESIS™ software. In parallel, the same reactions were performed except that 50 ng human FIXa were added per reaction.
To analyze the FVIII-like (FIXa activating) activity of the peptides, an assay system based on a commercial available FVIII assay was developed (see examples 2 and 4). The basic principle is, that without a cofactor, FIXa will have very limited activity towards its natural substrate FX. […] The amount of FXa generated is monitored by cleavage of a chromogenic substrate. The principle of the revised chromogenic assay is described for two representative peptides: A1/3 and A1/5 (Table 2). Briefly, 25 μl aliquots of peptide stock solution (in imidazole buffer (IZ) 50 mM imidazole, 100 mM NaCl, pH 7.2) were transferred to microtiter plate wells and warmed to 37° C. Chromogenic FXa substrate (S-2222), synthetic thrombin inhibitor (I-2581), bovine FIXa and bovine FX were reconstituted in sterile water and FIXa/FX mixed with phospholipids according to the supplier's protocol. […] Per reaction, 50 μl of the phospholipid/FIXa/FX solution were combined with 25 μl CaCl2 (25 mM) and 50 μl of the substrate/inhibitor cocktail. To start the reaction, 125 μl of the premix were added to the peptide solution in the microtiter plate and incubated at 37° C. Absorbance at 405 nm and 490 nm of the samples was read at various times (5 min to 2 h) against a reagent blank in a Labsystems iEMS Reader MF™ microtiter plate reader using GENESIS™ software.

factor IXa = target: T2, factor IXa (Bos taurus, UniProt P00741); experiment: Chromogenic FVIII assay (COATEST VIII:C/4) with the kit's FIXa/FX; assay type: biochemical, bovine; settings: bovine FIXa and FX only; A1/3 24 μM
T2 construct: purchased Chromogenix COATEST VIII:C/4
Experimental: In order to assay the FVIII-like activity of anti-FIXa antibodies secreted by hybridoma cells, the commercially available test-kit COATEST VIII:C/4® (Chromogenix) was employed. The assay was done essentially as described by the manufacturer with the following modifications:
To allow high throughput screening, the assay was downscaled to microtiter plate format. Briefly, 25 μl aliquots of hybridoma supernatants were transferred to microtiter plate (Costar, #3598) wells and warmed to 37° C. Chromogenic substrate (S-2222), synthetic thrombin inhibitor (I-2581), factor (F) IXa and FX were reconstituted in sterile water and FIXa/FX was mixed with phospholipids according to the supplier's protocol. Per reaction, 50 μl of the phospholipid/FIXa/FX solution were combined with 25 μl CaCl2 (25 mM) and 50 μl of the substrate/inhibitor cocktail. To start the reaction, 125 μl of the premix were added to the hybridoma supernatant in the microtiter plates and incubated at 37° C. Absorbency at 405 nm and 490 nm of the samples was read at various times (30 min to 12 h) against a reagent blank (MLW, cell culture medium instead of hybridoma supernatant) in a Labsystems iEMS Reader MF™ microtiter plate reader. FVIII-like activity of the samples was calculated by comparing the absorbency of the samples against the absorbency of a diluted FVIII reference standard (IMMUNO AG #5T4AR00) using GENESIS™ software.
Several anti-FIX/FIXa antibody producing hybridoma clones were subcloned up to four times and the resulting monoclonal hybridoma cell line used to produce monoclonal antibody containing supernatant. IgG isotype antibodies derived from these supernatants were purified over affinity columns and dialyzed against TBS (see above). IgM antibodies were used as unpurified supernatant fractions. […] Absorbance at 405 nm and 490 nm of the samples was read at various times (5 min to 6 h) against a reagent blank (cell culture medium instead of hybridoma supernatant) in a Labsystems iEMS Reader MF™ microtiter plate reader using GENESIS™ software. […]

T2 sequence (P00741 47-192 limits assumed): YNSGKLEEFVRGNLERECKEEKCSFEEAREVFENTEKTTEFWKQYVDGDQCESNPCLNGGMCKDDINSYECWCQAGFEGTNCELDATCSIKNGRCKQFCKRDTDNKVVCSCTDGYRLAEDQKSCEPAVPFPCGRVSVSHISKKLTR
T2 sequence (P00741 228-462 limits assumed): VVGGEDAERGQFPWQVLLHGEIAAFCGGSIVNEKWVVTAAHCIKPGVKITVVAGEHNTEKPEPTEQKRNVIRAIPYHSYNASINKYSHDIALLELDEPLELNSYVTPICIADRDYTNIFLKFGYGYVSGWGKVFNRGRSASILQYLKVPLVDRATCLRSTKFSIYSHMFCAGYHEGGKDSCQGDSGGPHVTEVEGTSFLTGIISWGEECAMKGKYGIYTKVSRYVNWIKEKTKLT
T1 sequence (P00740 47-191 limits assumed): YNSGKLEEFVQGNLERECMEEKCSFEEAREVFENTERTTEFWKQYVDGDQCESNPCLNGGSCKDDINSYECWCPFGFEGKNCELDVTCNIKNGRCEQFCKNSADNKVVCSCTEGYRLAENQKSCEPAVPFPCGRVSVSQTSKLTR
T1 sequence (P00740 227-461 limits assumed): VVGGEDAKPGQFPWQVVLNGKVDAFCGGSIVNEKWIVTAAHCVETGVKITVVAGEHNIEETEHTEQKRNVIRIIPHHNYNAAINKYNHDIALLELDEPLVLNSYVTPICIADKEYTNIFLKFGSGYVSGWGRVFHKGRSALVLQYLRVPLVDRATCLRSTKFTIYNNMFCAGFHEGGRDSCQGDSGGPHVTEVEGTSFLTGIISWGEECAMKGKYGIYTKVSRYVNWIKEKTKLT

Molecule: RRRGEYGVYWNGDFYRRR [A1/3-scr3]
average clotting time (FVIII deficient plasma; 2.5 μM, 2.2 nM FIXa): 96 s | clotting time (FVIII deficient plasma; 2.5 μM, 2.2 nM FIXa, duplicate 1): 96.3 s | clotting time (FVIII deficient plasma; 2.5 μM, 2.2 nM FIXa, duplicate 2): 95.2 s | average clotting time (FVIII deficient plasma; 2.5 μM, w/o FIXa): 108 s | clotting time (FVIII deficient plasma; 2.5 μM, w/o FIXa, duplicate 1): 107.8 s | clotting time (FVIII deficient plasma; 2.5 μM, w/o FIXa, duplicate 2): 107.4 s | average clotting time (FVIII deficient plasma; 7.5 μM, 2.2 nM FIXa): 101 s | clotting time (FVIII deficient plasma; 7.5 μM, 2.2 nM FIXa, duplicate 1): 100.8 s | clotting time (FVIII deficient plasma; 7.5 μM, 2.2 nM FIXa, duplicate 2): 100.6 s | average clotting time (FVIII deficient plasma; 7.5 μM, w/o FIXa): 114 s | clotting time (FVIII deficient plasma; 7.5 μM, w/o FIXa, duplicate 1): 114.2 s | clotting time (FVIII deficient plasma; 7.5 μM, w/o FIXa, duplicate 2): 113.9 s | average clotting time (FVIII deficient plasma; 12.5 μM, 2.2 nM FIXa): 104 s | clotting time (FVIII deficient plasma; 12.5 μM, 2.2 nM FIXa, duplicate 1): 103.1 s | clotting time (FVIII deficient plasma; 12.5 μM, 2.2 nM FIXa, duplicate 2): 104.5 s | average clotting time (FVIII deficient plasma; 12.5 μM, w/o FIXa): 117 s | clotting time (FVIII deficient plasma; 12.5 μM, w/o FIXa, duplicate 1): 116 s | clotting time (FVIII deficient plasma; 12.5 μM, w/o FIXa, duplicate 2): 117.6 s | average clotting time (FVIII deficient plasma; 15 μM, 2.2 nM FIXa): 106 s | clotting time (FVIII deficient plasma; 15 μM, 2.2 nM FIXa, duplicate 1): 106.1 s | clotting time (FVIII deficient plasma; 15 μM, 2.2 nM FIXa, duplicate 2): 105.5 s | average clotting time (FVIII deficient plasma; 15 μM, w/o FIXa): 122 s | clotting time (FVIII deficient plasma; 15 μM, w/o FIXa, duplicate 1): 122.5 s | clotting time (FVIII deficient plasma; 15 μM, w/o FIXa, duplicate 2): 122 s | chromogenic FVIII-like activity (FXa generation) (human FIXa): did not give any significant chromogenic activity

chromogenic FVIII-like activity (FXa generation) without human FIXa (factor IXa): does not react with bovine FIXa and FX
B1: 198/A1: anti-FIX/FIXa monoclonal IgG, ECACC No. 99090924; scFv SEQ. ID. NOs. 87 and 88 (protein)
scFv: EVQLQESGGGLVKPGGSLKLSCAASGFIFSSYTMSWVRQTPEKRLEWVATISSGGSSTYYPDSVKGRFTISRDNAKNTLYLQMSSLKSEDTAMYHCTREGGGYYVNWYFDVWGAGTTLTVSSGGGGSGGRASGGGGSDIELTQSPASLAVSLGQRATISCRASESVDSYGKSFMHWYQQKPGQPPKLLIYRASNLESGIPARFSGSGSRTDFTLTINPVEADDVATYYCQQSNEDPLTFGAGTRLEIKR
modifications: scFv derived from IgG; Description of Artificial Sequence:scFv derived from hybridima cell line 198/A1
notes: anti-FIX/FIXa monoclonal IgG, ECACC No. 99090924; ID; NOs; 87 and 88
procoagulant activity (FVIII deficient plasma; one-stage clotting assay in the presence of FIXa): show procoagulant activity

Source: US7279161B2, “Factor IX/factor IXa activating antibodies and antibody derivatives” (Baxter Aktiengesellschaft, priority 1999, dated 2007)
